Test results: US9145385B2, “Crystalline salts of R)-3-[6-amino-pyridin-3-yl]-2-(1-cyclohexy1-1H-imidazol-4-yl)-propionic acid” (Sanofi, priority 2011, dated 2015)
Values belong to the compound of their own block, whether it stands above or below them.

How the values were obtained:
[1] = Chemical stability under elevated temperature and humidity; format: physicochemical; settings: result in words
[2] = Dynamic Vapor Sorption (DVS) moisture sorption/desorption isotherm at 25° C.; format: physicochemical
Experimental: Moisture sorption/desorption isotherms were recorded on a SPS11-10μ from Projekt Messtechnik (Ulm, Germany). One cycle was run at 25° C., in which the sample was first stepwise decreased to 0% RH and then the relative humidity was stepwise increased from 0 to 95% and the weight of the sample was measured. Typical total measurement times for both cycles were about 20 to 30 hours.
The measurement was performed as disclosed in Example 7 with (R)-3-[6-amino-pyridin-3-yl]-2-(1-cyclohexyl-1H-imidazol-4-yl)-propionic acid (free acid, amorphous) and the received data are shown in the following table 2.

chemical stability [1]: chemically not stable | enantiomeric purity on storage [1]: reduced within a short time
SMILES: Nc1ccc(C[C@@H](C(=O)O)c2cn(C3CCCCC3)cn2)cn1 [(R)-3-[6-amino-pyridin-3-yl]-2-(1-cyclohexyl-1H-imidazol-4-yl)-propionic acid]

desorption of water ([2]; DVS 25° C., at 0.2% RH, phase transition monohydrate to anhydrate): −4.4%
SMILES: Nc1ccc(C[C@@H](C(=O)[O-])c2cn(C3CCCCC3)cn2)cn1.[Na+] [(R)-3-[6-amino-pyridin-3-yl]-2-(1-cyclohexyl-1H-imidazol-4-yl)-propionic acid sodium salt monohydrate]

hygroscopicity (absorption or adsorption of water molecules from the surrounding environment) ([2]; result in words): hygroscopic
SMILES: Nc1ccc(CC(C(=O)O)c2cn(C3CCCCC3)cn2)cn1 (stereo not shown) [3-[6-amino-pyridin-3-yl]-2-(1-cyclohexyl-1H-imidazol-4-yl)-propionic acid, reference compound]
